The source made the active and inactive calls. Cut-off read from the data, not from the text of the source, for most assays here: actives have a measured EC50 and inactives only a lower limit.
How the values were obtained:
Nonstructural protein 1 = Nonstructural protein 1 (Influenza A virus, UniProt Q194T2); type: functional, Influenza A virus (A/California/07/2009(H1N1))
[1] = target: Heat shock protein HSP 90-alpha (Homo sapiens, UniProt P07900); type: functional, organism-based
Genome polyprotein = Genome polyprotein (dengue virus type 2, UniProt P29990); experiment: flavivirus cap methylation enzyme inhibition – biochemical, confirmation dose response, primary screen (AID 588689); type: functional
[2] = target: Induced myeloid leukemia cell differentiation protein Mcl-1 (Homo sapiens, UniProt Q07820); type: functional
[3] = target: T1, RNA-binding protein pos-1 (Caenorhabditis elegans, UniProt G5EF15); experiment: disruptors of C. elegans POS-1 RNA interaction – biochemical, fluorescence polarization, dose response (AID 1964);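 note: purified POS-1 fused to maltose binding protein made in E. coli; potency of compounds blocking POS-1 binding to fluorescent RNA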
T1 sequence (G5EF15 whole entry): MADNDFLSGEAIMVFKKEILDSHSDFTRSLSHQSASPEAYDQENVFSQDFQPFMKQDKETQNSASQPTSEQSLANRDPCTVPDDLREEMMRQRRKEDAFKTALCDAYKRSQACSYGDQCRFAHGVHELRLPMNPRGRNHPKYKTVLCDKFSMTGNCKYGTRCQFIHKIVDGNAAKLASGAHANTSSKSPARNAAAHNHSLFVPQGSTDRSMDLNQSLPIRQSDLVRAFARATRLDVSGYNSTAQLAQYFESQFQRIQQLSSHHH

Leucine aminopeptidase = target: T2, Leucine aminopeptidase (Plasmodium falciparum 3D7, UniProt Q8IL11); experiment: P. falciparum M17LAP inhibitors, primary screen, biochemical, fluorogenic H-Leu-NHMec substrate, 1536-well (AID 1619); type: functional
T2 sequence (Q8IL11 whole entry): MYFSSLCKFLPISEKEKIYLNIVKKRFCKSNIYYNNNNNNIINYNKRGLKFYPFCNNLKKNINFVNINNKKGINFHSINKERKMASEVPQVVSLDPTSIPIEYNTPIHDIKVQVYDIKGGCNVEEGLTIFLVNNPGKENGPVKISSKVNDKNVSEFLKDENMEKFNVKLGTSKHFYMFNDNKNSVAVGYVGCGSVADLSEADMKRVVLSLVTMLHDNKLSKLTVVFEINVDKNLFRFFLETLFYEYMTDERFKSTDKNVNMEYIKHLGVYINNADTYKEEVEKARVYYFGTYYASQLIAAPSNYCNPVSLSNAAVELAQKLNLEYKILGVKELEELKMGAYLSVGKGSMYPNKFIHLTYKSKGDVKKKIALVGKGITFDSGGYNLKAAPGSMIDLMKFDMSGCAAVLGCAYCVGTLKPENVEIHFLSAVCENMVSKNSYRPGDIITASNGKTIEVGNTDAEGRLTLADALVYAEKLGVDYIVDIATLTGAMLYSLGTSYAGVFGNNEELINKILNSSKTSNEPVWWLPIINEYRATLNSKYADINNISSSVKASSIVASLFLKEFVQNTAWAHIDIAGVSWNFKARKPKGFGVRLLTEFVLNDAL

[4] = target: T3, Carboxy-terminal domain RNA polymerase II polypeptide A small phosphatase 1 (Homo sapiens, UniProt Q9GZU7); experiment: CTDSP1 inhibitors, concentration-response, biochemical, absorbance readout, ultra-high-throughput screen actives (AID 540297); type: functional
T3 sequence (Q9GZU7 whole entry): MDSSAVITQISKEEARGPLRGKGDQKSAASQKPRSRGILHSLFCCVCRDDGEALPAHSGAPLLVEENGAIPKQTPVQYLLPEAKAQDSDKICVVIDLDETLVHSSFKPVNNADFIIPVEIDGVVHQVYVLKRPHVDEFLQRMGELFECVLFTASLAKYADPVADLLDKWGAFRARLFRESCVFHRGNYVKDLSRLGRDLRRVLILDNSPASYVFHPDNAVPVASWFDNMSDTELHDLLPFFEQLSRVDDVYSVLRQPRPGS

[5] = target: T4, Zinc finger protein mex-5 (Caenorhabditis elegans, UniProt Q9XUB2); experiment: potency of MEX-5 RNA-binding blockers – biochemical, C. elegans, fluorescence polarization, dose response (AID 1960)
T4 sequence (Q9XUB2 whole entry): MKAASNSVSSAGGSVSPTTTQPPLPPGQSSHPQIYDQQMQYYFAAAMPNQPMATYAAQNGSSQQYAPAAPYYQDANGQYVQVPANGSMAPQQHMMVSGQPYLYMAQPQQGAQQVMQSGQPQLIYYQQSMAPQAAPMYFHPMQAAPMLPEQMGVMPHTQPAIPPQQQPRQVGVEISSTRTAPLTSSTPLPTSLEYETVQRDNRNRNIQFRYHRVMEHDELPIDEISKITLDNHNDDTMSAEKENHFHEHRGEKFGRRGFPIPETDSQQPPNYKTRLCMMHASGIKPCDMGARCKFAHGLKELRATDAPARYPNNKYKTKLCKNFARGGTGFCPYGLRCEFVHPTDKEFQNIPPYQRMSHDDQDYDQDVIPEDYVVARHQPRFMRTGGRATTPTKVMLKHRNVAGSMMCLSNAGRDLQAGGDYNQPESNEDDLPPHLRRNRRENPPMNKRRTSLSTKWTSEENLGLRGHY

[6] = target: T5, Histone-lysine N-methyltransferase NSD2 (Homo sapiens, UniProt O96028); type: biochemical
T5 sequence (O96028 whole entry): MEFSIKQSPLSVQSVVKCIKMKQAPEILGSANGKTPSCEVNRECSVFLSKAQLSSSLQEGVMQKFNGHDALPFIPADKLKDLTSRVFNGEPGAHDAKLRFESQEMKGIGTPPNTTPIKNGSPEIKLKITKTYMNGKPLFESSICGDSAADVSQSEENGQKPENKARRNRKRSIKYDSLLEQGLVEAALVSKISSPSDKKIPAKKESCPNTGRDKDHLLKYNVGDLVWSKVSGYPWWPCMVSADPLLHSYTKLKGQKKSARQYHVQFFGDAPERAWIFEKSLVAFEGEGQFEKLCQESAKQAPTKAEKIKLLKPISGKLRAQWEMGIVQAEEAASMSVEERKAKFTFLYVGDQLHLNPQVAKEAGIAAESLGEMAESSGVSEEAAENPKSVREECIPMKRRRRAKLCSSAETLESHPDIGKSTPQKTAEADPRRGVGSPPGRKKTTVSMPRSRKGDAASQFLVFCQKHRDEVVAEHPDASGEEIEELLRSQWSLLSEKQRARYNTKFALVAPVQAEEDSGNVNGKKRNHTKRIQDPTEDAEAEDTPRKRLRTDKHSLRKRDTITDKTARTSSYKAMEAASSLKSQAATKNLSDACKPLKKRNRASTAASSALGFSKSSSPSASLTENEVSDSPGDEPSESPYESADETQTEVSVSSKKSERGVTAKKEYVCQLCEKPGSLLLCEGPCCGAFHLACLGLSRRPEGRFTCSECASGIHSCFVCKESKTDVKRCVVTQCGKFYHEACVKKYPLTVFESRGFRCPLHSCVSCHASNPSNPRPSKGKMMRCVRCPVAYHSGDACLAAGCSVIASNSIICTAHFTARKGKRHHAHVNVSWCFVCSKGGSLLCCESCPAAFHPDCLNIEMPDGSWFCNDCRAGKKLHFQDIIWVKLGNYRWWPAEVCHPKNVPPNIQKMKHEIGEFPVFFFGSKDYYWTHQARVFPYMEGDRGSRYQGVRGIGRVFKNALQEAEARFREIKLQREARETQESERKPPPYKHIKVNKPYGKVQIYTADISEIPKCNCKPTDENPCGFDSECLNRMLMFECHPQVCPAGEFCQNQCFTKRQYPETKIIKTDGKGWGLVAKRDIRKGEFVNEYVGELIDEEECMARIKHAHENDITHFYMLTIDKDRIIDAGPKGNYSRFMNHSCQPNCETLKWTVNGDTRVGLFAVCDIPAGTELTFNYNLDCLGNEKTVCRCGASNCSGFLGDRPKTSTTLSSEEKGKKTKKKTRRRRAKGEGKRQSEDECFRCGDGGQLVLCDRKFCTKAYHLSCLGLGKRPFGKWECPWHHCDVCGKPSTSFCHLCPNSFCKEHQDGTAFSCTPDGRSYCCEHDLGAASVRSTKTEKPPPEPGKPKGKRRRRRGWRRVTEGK

[7] = Trypanosoma cruzi growth suppression in host cells – NIH3T3 host cells, beta-gal luminescence, confirmation (AID 2044); type: functional, cell-based;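 note: intracellular parasites grown in NIH/3T3 mouse fibroblasts as host cells; luminescent beta-galactosidase reporter signal from transgenic T. cruzi replicating inside host cells; inhibitors lower the luminescence signal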
[8] = luciferase reporter signal suppression in cells – H4 neuroglioma cells, luminescence, dose response (AID 1990); type: functional, cell-based
[9] = Luminescence Cell-Based Dose Response HTS to Identify Inhibitors of 5'UTR Stem-Loop Driven Prion Protein mRNA Translation in H4 Neuroglioblastoma Cells. [Related pubchem assays: 1827 (Project Summary), 1813 (Primary HTS)]; type: functional
[10] = alpha-synuclein stem-loop luciferase translation blockers – H4 neuroglioma cells, luminescence, confirmation (AID 1988); type: functional, cell-based
[11] = NIH3T3 cell viability loss – ATP luminescence, mouse fibroblasts, counter-screen, dose response (AID 2010); type: functional, cell-based;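 note: cells exposed to compound for about 90 hours before reading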
Streptococcus = experiment: GAS UMAA2166 growth inhibition – luminescence, BacTiterGlo, counter-screen for streptokinase expression inhibitor project, dose response (AID 1915); type: functional, organism-based;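 note: potency for reduction of bacterial viability or growth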
[12] = tested on: Streptococcus sp. 'group A'; experiment: Streptococcus pyogenes SK(-)GAS viability under kanamycin – luminescence, BacTiterGlo, confirmation, counter-screen for streptokinase expression inhibitor project, dose response (AID 1900); type: functional, organism-based
[13] = viability loss of HPDE-C7K cells – cell-based, fluorescence, HTS, primary screen (AID 431); type: functional; details: Homo sapiens
[14] = HPDE-C7 pancreatic duct cell viability loss – fluorescence, HTS (AID 430); type: functional, cell-based; details: Homo sapiens
[15] = microbe, parasite or virus in culture; type: functional; details: Mycobacterium tuberculosis
INS1 = experiment: INS-1E survival protection against cytokine death – cell-based, luminescence, retest, dose response (AID 449756); type: functional; details: Rattus norvegicus;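 note: cell death triggered by IL-1 beta plus TNF-alpha plus IFN-gamma mixture; protective hits raise ATP signal compared with cytokine alone wells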
[16] = viability of PTEN-deleted HCT116 cells – cell-based, HCT116 PTEN knockout, dose response (AID 1047); type: functional;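 note: HCT116 colon tumor cells with PTEN knocked out; cells exposed to compound for 60 hours before readout; potency for loss of cell viability measured by luminescence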
[17] = viability of HCT116 lacking mutant beta-catenin – cell-based, human colon tumor, dose response (AID 1045); type: functional;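 note: HCT116 colon tumor cells with beta catenin knocked out; cells exposed to compound for 60 hours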
[18] = target: Luciferin 4-monooxygenase (Photinus pyralis, UniProt P08659); experiment: inhibition of purified Photinus pyralis luciferase – biochemical, luminescence, dose response (AID 1891)
[19] = Luminescence Cell-Based Dose Confirmation HTS to Identify Inhibitors of Platelet Dense Granule Release. [Related pubchem assays: 1663 (Primary HTS), 1678 (Summary of Project)]; type: functional

Nonstructural protein 1, sequence (Q194T2 whole entry): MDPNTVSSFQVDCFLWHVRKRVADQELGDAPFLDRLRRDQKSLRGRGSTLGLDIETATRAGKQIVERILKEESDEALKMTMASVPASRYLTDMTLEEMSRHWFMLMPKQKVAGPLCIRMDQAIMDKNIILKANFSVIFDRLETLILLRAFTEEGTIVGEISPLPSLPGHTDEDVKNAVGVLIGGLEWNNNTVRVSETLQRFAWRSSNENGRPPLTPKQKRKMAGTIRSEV
Genome polyprotein, sequence (P29990 2492-3391 limits assumed): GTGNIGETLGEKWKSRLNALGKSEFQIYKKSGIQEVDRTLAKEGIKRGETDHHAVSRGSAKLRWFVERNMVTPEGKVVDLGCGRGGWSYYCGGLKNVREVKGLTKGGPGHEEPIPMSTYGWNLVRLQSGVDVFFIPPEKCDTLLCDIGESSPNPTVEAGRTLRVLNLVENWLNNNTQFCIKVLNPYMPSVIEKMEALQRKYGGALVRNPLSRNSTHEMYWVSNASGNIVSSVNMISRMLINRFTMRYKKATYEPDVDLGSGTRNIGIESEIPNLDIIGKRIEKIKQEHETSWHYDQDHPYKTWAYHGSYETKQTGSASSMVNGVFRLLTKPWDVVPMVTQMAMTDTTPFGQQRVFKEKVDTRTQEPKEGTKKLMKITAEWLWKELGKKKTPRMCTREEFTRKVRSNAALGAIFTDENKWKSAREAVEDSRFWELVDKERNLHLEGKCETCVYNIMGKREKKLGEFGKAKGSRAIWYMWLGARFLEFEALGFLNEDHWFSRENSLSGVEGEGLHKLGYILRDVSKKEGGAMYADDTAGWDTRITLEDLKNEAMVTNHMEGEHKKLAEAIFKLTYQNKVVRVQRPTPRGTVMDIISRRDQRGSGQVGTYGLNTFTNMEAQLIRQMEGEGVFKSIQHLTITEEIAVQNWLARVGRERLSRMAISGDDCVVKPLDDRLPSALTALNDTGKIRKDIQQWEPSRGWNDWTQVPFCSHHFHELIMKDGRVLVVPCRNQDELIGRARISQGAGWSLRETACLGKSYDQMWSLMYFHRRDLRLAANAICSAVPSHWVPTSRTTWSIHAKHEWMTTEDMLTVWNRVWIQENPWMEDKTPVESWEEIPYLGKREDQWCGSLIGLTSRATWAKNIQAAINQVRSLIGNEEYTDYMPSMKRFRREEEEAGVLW
Induced myeloid leukemia cell differentiation protein Mcl-1, sequence (Q07820 whole entry, the tested form may be a part): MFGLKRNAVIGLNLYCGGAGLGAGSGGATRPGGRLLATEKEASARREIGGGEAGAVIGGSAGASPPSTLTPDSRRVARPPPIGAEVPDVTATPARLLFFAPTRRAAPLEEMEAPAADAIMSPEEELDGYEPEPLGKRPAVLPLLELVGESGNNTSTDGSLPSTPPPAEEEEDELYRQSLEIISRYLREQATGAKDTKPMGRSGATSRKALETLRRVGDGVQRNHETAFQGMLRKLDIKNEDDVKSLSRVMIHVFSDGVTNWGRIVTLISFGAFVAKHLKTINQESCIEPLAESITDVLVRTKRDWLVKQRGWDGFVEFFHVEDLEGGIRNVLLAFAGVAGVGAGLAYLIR
Luciferin 4-monooxygenase, sequence (P08659 whole entry): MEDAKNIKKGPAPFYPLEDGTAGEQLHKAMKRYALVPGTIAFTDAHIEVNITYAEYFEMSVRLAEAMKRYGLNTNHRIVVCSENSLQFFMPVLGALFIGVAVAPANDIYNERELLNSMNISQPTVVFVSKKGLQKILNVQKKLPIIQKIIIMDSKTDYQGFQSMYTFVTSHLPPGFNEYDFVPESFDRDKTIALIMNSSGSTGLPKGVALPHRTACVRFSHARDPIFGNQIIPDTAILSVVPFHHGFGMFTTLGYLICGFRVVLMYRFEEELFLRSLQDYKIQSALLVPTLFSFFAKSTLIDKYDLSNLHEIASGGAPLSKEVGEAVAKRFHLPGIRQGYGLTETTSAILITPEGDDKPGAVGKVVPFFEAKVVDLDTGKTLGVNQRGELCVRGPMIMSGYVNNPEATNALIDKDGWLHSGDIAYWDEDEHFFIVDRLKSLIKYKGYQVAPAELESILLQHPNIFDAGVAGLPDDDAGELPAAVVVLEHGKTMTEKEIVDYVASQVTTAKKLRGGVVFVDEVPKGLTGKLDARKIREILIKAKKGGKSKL

Structure (SMILES): Cc1cc(NC(=O)CSc2nnc(-c3ccco3)o2)no1
- IC50 (Nonstructural protein 1): 32.4 µM (active)

Structure (SMILES): COC(=O)c1ccc(N2C(=O)CC(N(C)Cc3ccccc3)C2=O)cc1 (stereo not drawn)
- AC50 [1]: 7.7 µM (active)

Structure (SMILES): COc1ccccc1/C=C1\SC(=S)N(NS(=O)(=O)c2ccc(C)cc2)C1=O
- IC50 (Genome polyprotein): 34.7 µM (active)

Structure (SMILES): O=C(Cn1nc(C(=O)O)c2ccccc2c1=O)Nc1ccc2c(c1)C(=O)c1ccccc1C2=O
- IC50 [2]: 4.02 µM (active)

Structure (SMILES): Cc1cc(/C=C(/C#N)c2nc3ccccc3[nH]2)c(C)n1-c1cc(C(=O)O)cc(C(=O)O)c1
- EC50 [3]: 59.3 µM (active)
- IC50 (Leucine aminopeptidase): 42.6 µM (active)
- IC50 [4]: 5.68 µM (active)
- EC50 [5]: 41.4 µM (active)
- AC50 [6]: > 20 µM (inactive)

Structure (SMILES): Oc1ccc(CN2CCN(c3ccccc3)CC2)c2cccnc12
- EC50 [7]: 1.86 µM (active)
- EC50 [8]: 11.9 µM (active)
- IC50 (Nonstructural protein 1): 59.1 µM (active)
- EC50 [9]: 9.95 µM (active)
- EC50 [10]: 9.72 µM (active)
- EC50 [11]: > 60 µM (not active)
- EC50 (Streptococcus): 7.49 µM (active)
- EC50 [12]: 5.48 µM (active)

Structure (SMILES): Cc1cc(C)c(S(=O)(=O)NCC23C=CC(O2)C2C(=O)N(c4ccccc4)C(=O)C23)c(C)c1 (stereo not drawn)
- AC50 [1]: 10.1 µM (active)

Structure (SMILES): CC(C)(C)OC(=O)N[C@@H](Cc1ccccc1)c1nnc(S(=O)(=O)Cc2ccccc2)o1
- EC50 [13]: > 20 µM (not active)
- EC50 [14]: 16.9 µM (active)

Structure (SMILES): O=C1C([N-]S(=O)(=O)c2cccs2)=C([n+]2ccc(CCCc3ccccc3)cc2)C(=O)c2ccccc21
- EC50 [3]: 119 µM (active)
- EC50 [8]: 10.5 µM (active)
- CC50 [15]: 9.69 µM (active)
- AC50 (INS1): 8.75 µM (active)
- EC50 [9]: > 120 µM (not active)
- EC50 [10]: 8.36 µM (active)
- EC50 [5]: 97 µM (active)

Structure (SMILES): CN1c2ccccc2C(C)(C)C12C=Cc1cc(O)ccc1O2 (stereo not drawn)
- EC50 [13]: > 20 µM (not active)
- EC50 [16]: 36.4 µM (active)
- EC50 [17]: 18.4 µM (active)
- EC50 [14]: 15.2 µM (active)

Structure (SMILES): Cc1ccc2c(c1)c1ncnc(N3CCc4ccccc4C3)c1n2C
- EC50 [13]: 11.7 µM (active)
- CC50 [15]: > 40 µM (active)
- EC50 [14]: 11.4 µM (active)

Structure (SMILES): O=C(O)CN1C(=O)/C(=C\c2cccc(OCc3ccc(F)cc3)c2)SC1=S
- IC50 (Genome polyprotein): 42.6 µM (active)

Structure (SMILES): O=C1CC2CCCN2C=C1I (stereo not drawn)
- IC50 [4]: 5.48 µM (active)
- IC50 (Genome polyprotein): 62.7 µM (active)

Structure (SMILES): O=C1NC(=O)C(=Cc2ccccc2[N+](=O)[O-])C(=O)N1
- IC50 (Genome polyprotein): 27.3 µM (active)

Structure (SMILES): Oc1nccc(N/N=C/c2ccccc2O)n1
- EC50 [18]: 36.3 µM (active)
- EC50 [19]: 4.11 µM (active)
- IC50 (Nonstructural protein 1): 10.3 µM (active)
- AC50 (INS1): 0.625 µM (active)

Structure (SMILES): O=C(COC(=O)c1cc(-c2ccco2)nc2ccccc12)NCc1ccc2c(c1)OCO2
- IC50 [2]: < 0.4 µM (active)

Source: ChEMBL document CHEMBL1201862, “PubChem BioAssay data set” (2004)
